Legend:
Assay type in all cases: in vivo
[1] = tested on: rats with experimental arthritis; experiment: Primary connective tissue metabolites in blood serum, rat model of systemic steroid (dexamethasone) arthritis; details: Day 56, daily i.m. 4 weeks, 50 mg/kg
Text: Example 2. A study of the chondroprotective activity of a composition comprising peptides Lys-Asp-Glu, Ala-Asp-Glu, Asp-Glu-Gly, and an agent comprising peptides Lys-Asp-Glu, Ala-Asp-Glu, Asp-Glu-Gly and chondroitin sulfate and/or glucosamine sulfate using a rat-based model of systemic steroid arthritis.
Lyophilized powder consisting of peptides Lys-Asp-Glu, Ala-Asp-Glu, Asp-Glu-Gly was used to obtain the preparation for intramuscular injections.
The daily dose of the composition comprising peptides Lys-Asp-Glu, Ala-Asp-Glu, Asp-Glu-Gly was 50 µg/kg (at a weight ratio of the peptides of 1:1:1), 150 µg/kg (at a weight ratio of the peptides of 1:2:1), 300 µg/kg (at a weight ratio of the peptides of 0.1:1:10) or 600 µg/kg (at a weight ratio of the peptides of 1:1:3).
The daily dose of the composition comprising peptides Lys-Asp-Glu, Ala-Asp-Glu, Asp-Glu-Gly and glucosamine sulfate or chondroitin sulfate was 150 µg/kg of the peptides (at a weight ratio of the peptides of 1:2:1) and 50 mg/kg of glucosamine sulfate or chondroitin sulfate, or 300 µg/kg of the peptides (at a weight ratio of the peptides of 0.1:1:10) and 50 mg/kg of glucosamine sulfate or chondroitin sulfate, or 600 µg/kg of the peptides (at a weight ratio of the peptides of 1:1:3) and 50 mg/kg of glucosamine sulfate or chondroitin sulfate. […]
The study was conducted using white outbred male rats 4-5 months of age weighing 250-300 g obtained from the same litter (same age and weight, with normal primary clinical and biochemical analyses parameters). […] The first signs of the arthropathy were detected as early as week 2 of the experiment.
Starting from day 28 of the experiment, all animals received corresponding intramuscular doses of the preparations on a daily basis over 4 weeks. The degree of activity of the pathological process was evaluated using biochemical blood test parameters. […]
Clinical observation of the animals was implemented throughout the study; the functional state of the rat joints was monitored (degree of mobility, resistance to stress, swelling, hyperaemia). […]

[2] = tested on: articular cartilages of the knee joints of the rats; experiment: Histomorphological and morphometric study of the articular cartilages of the knee joints (light microscopy, scoring system)
Protocol: The study was conducted using white outbred male rats 4-5 months of age weighing 250-300 g obtained from the same litter (same age and weight, with normal primary clinical and biochemical analyses parameters). Modeling of steroid arthritis was achieved by three single intramuscular injections of dexamethasone administered at an interval of 1 week at a dose of 7 mg/kg. The first signs of the arthropathy were detected as early as week 2 of the experiment.
Starting from day 28 of the experiment, all animals received corresponding intramuscular doses of the preparations on a daily basis over 4 weeks. The degree of activity of the pathological process was evaluated using biochemical blood test parameters. The following biochemical parameters were used as the parameters for evaluation of the intensity of progression of the pathological process in the experimental groups: the contents of sialic acids, glycoproteins, and chondroitin sulfates in the serum, as these parameters reflect the intensity of progression of the degenerative-dystrophic processes in the connective tissue.
Clinical observation of the animals was implemented throughout the study; the functional state of the rat joints was monitored (degree of mobility, resistance to stress, swelling, hyperaemia). The animals were decapitated under ether anesthesia at the end of the study (on day 56) to harvest biomaterials for biochemical and histomorphological studies.
In order to investigate the chondroprotective activity of the composition, a study of the condition of the morpho- and ultrastructure of the articular cartilages of the knee joints of the rats was carried out on day 56 of the experiment.
The histomorphological investigation of the articular cartilages was carried out using standard light microscopy techniques.
The morphometric measurements were carried out using an ocular micrometer: the cartilage thickness was determined using slide mounts; the measurements were taken at 3 individual points - the central part of the head, and the upper and lower edges. The thickness of the articular cartilages was expressed in conventional units. The density of chondrocytes per conventional unit area was also estimated. Statistical processing of the digital data obtained was performed using Student's t-test and non-parametric methods of analysis (Mann-Whitney U Test). […]

[3] = tested on: articular cartilages of rats with experimental arthritis; experiment: Electron microscopic study of the ultrastructure of the articular cartilages; details: 50 mg/kg
Protocol: The study of the ultrastructure of the articular cartilages of the rats was performed using conventional electron microscopy techniques.

[4] = tested on: patients with degenerative-dystrophic diseases of the joints; experiment: Clinical administration to patients with joint disease (first group); details: 500 mg, tablets twice a day three weeks then once daily
Protocol: (§1) Example 3. Administration of the peptide composition and the peptide composition in combination with glucosamine sulfate and/or chondroitin sulfate to patients with degenerative-dystrophic diseases of the joints and the spine.
(§2) The studies were carried out in a group patients aged 40 - 65 years.
The first group (50 patients) was characterized by stiffness in the joints, as well as puffiness or swelling in the joints, which was manifested in the appearance of pain of varying intensity and duration.
A total of 15 patients in the first group were exposed to the peptide composition administered at a dose of 150 µg; 7 patients received glucosamine sulfate at a dose of 500 mg; 10 patients were treated with the composition of the peptides administered at a dose of 150 µg, glucosamine sulfate at a dose of 500 mg, and chondroitin sulfate at a dose of 50 mg; and 18 patients received the composition of the peptides administered at a dose of 150 µg and glucosamine sulfate at a dose of 500 mg in the form of tablets twice a day over the first three weeks and then once daily for up to 6 months. A sustained therapeutic effect associated with administration of glucosamine sulfate was achieved after at least 6 months of therapy. […]

[5] = tested on: patients with degenerative process occurring in the intervertebral joints and intervertebral discs; experiment: Clinical administration to patients with degenerative process of the spine (second group); details: 50 mg intramuscularly daily, 30 injections
Protocol: as §1, §2
The second group (30 patients) was characterized by the degenerative process occurring in the intervertebral joints and intervertebral discs accompanied by deformation of the intervertebral discs and formation of osteophytes, which was manifested in the appearance of pain of varying intensity and duration.
A total of 10 patients in the second group received the peptide composition at a dose of 300 µg; 9 patients received glucosamine sulfate at a dose of 50 mg; and 11 patients received the composition of the peptides at a dose of 300 µg and glucosamine sulfate at a dose of 50 mg administered intramuscularly on a daily basis. The treatment course comprised 30 injections. A therapeutic effect associated with administration of glucosamine sulfate was achieved after at least 1 month of therapy. […]

Question: Which results are given for `N[C@H]1C(O)O[C@H](CO)[C@@H](O)[C@@H]1O.O=S(=O)(O)O` (stereo partly shown) [Glucosamine sulfate]?
Answer: Chondroitin sulfate [1]: 0.400 ± 0.027 g/L; Glycoproteins [1]: 3.59 ± 0.29 g/L; Sialic acids [1]: 4.27 ± 0.34 mmol/L; morphology of the joints (slide mounts) ([2]; 50 mg/kg): improvement of the morphology in comparison to the control pathology animal group; Cartilage thickness ([2]; day 56, 50 mg/kg): 14.10±1.06 conventional units; Cell density per conventional unit area ([2]; day 56, 50 mg/kg): 23.79±1.80; Total score according to the cartilage condition evaluation system ([2]; day 56, 50 mg/kg): 16.2±1.3; ultrastructure of the cartilages [3]: normalization of the ultrastructure of the cartilages accompanied by moderate degenerative-dystrophic manifestations in chondrocytes; therapy duration until sustained therapeutic effect [4]: at least 6 months; therapy duration until therapeutic effect [5]: at least 1 month

Source: patent EP3189848B1, “A COMPOSITION COMPRISING TRIPEPTIDES FOR THE TREATMENT OF DISEASES OF THE JOINTS AND THE SPINE” (Zamerton Holdings Limited, priority 2014, dated 2016)
